Data reported in patent US20240158446A1, “CYCLIC COMPOUND HAVING SELECTIVE INHIBITORY ACTION ON KRAS OVER HRAS AND NRAS” (CHUGAI SEIYAKU KABUSHIKI KAISHA, priority 2021, published 2024).
pIC50, pKd: −log10 of the molar value. Where two headings read alike, the source gives them in different places. Where a SMILES comes first, the peptide text is derived from it. Bridges are numbered along the chain shown (N, C = ends). [ ]: non-standard residue; d: D form. The star is where a group is joined. hPhe(3-Cl-4-CF3) = N[C@@H](CCc1ccc(C(F)(F)F)c(Cl)c1)C(=O)O; NPrPhe(4-CF3) = CCCN[C@@H](Cc1ccc(C(F)(F)F)cc1)C(=O)O; NMeGly(cPent) = CN[C@H](C(=O)O)C1CCCC1; NMeD = CN[C@@H](CC(=O)O)C(=O)O; NMeL = CN[C@@H](CC(C)C)C(=O)O; NMeNva = CCC[C@H](NC)C(=O)O; Morpholide = C1CN(*)CCO1; Ac4c = NC1(C(=O)O)CCC1; NPrGly = CCCNCC(=O)O; NEtG = CCNCC(=O)O; Sar = CNCC(=O)O

Legend:
[1] = target: GDP-bound NRAS wild-type protein (Homo sapiens, UniProt P01111); assay: Binding to NRAS by surface plasmon resonance (SPR), Single Cycle Kinetics; settings: SPR; for NRAS/KRAS (KD ratio): ratio of KD for GDP-bound NRAS wild-type protein to KD for KRAS; for NRAS/KRAS (ratio of KD value for NRAS to KD value for KRAS): GDP-bound NRAS wild-type protein vs GDP-bound KRAS wild-type protein
Sequence of GDP-bound NRAS wild-type protein (P01111 whole entry): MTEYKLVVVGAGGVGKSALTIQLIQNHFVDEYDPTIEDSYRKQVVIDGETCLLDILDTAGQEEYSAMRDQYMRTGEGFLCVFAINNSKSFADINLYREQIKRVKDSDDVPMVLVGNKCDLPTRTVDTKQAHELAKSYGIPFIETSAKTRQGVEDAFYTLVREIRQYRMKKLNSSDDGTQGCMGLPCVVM

[2] = target: GDP-bound HRAS wild-type protein (Homo sapiens, UniProt P01112); assay: Binding to HRAS by surface plasmon resonance (SPR), Single Cycle Kinetics; settings: SPR; for HRAS/KRAS (KD ratio): ratio of KD for GDP-bound HRAS wild-type protein to KD for KRAS; for HRAS/KRAS (ratio of KD value for HRAS to KD value for KRAS): GDP-bound HRAS wild-type protein vs GDP-bound KRAS wild-type protein
Sequence of GDP-bound HRAS wild-type protein (P01112 whole entry): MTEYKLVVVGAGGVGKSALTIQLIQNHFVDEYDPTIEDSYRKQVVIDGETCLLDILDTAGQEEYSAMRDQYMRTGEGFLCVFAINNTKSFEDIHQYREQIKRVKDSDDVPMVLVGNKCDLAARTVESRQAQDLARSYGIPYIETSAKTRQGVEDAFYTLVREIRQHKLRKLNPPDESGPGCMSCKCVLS

[3] = target: GDP-bound KRAS wild-type protein (Homo sapiens, UniProt P01116); assay: Binding to KRAS by surface plasmon resonance (SPR), Single Cycle Kinetics; settings: SPR, Single Cycle Kinetics, GDP-bound KRAS wild-type protein; read-out: KRAS KD
Sequence of GDP-bound KRAS wild-type protein (P01116 whole entry): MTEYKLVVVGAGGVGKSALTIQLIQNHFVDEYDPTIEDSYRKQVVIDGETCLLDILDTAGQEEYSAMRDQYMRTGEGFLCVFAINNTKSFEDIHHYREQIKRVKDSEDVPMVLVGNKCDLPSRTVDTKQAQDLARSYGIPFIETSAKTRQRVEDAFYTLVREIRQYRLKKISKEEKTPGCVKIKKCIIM

[4] = tested on: human lung cancer strain NCI-H441;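 further: cell proliferation inhibition after four days measured by CellTiter-Glo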
[5] = read-out: NCI-H441 IC50, NCI-H441 cell proliferation, 4 days, CellTiter-Glo

| Compound | NRAS/KRAS (KD ratio) [1] | HRAS/KRAS (KD ratio) [2] | pKd [3] | pIC50 [4, 5] | pIC50 [4] | NRAS/KRAS (ratio of KD value for NRAS to KD value for KRAS) [1] | HRAS/KRAS (ratio of KD value for HRAS to KD value for KRAS) [2] |
| --- | --- | --- | --- | --- | --- | --- | --- |
| CCCC[C@H]1C(=O)N[C@@H]([C@@H](C)CC)C(=O)N(C)CC(=O)N(C)[C@H]2C/C=C\CCN(C2=O)[C@@H](Cc2ccc(C(F)(F)F)cc2)C(=O)N(C)CC(=O)N[C@@H](CCc2cc(F)c(C(F)(F)F)c(F)c2)C(=O)N2C[C@H](OCC)C[C@H]2C(=O)NC2(CC(F)(F)C2)C(=O)N(C)[C@@H](C2CCCC2)C(=O)N(C)[C@H](C(=O)N(C)C)CC(=O)N1C [PP1740] | A (a compound having 10 or more and less than 20 is denoted as A) | A (a compound having 10 or more and less than 20 is denoted as A) | 10.28 | 8.44 | – | – | – |
| CC[C@H](C)[C@@H]1NC(=O)[C@H](CC(C)C)N(C)C(=O)C[C@@H](C(=O)N(C)C)N(C)C(=O)[C@H](C2CCCC2)N(C)C(=O)C2(CCC2)N(C)C(=O)[C@@H]2CCCN2C(=O)[C@H](CCc2cc(F)c(C(F)(F)F)c(F)c2)NC(=O)CN(C)C(=O)[C@H](Cc2ccc(C)cc2)N2CC/C=C\C[C@@H](C2=O)N(C)C(=O)CN(C)C1=O [PP1791] | A (a compound having 10 or more and less than 20 is denoted as A) | A (a compound having 10 or more and less than 20 is denoted as A) | 10.38 | 8.43 | – | – | – |
| CCO[C@@H]1C[C@H]2C(=O)NC3(CCC3)C(=O)N(C)[C@@H](C3CCCC3)C(=O)N(C)[C@H](C(=O)N(C)CC)CC(=O)N(C)[C@H]3CCCC/C=C/c4ccc(cc4)C[C@@H](C(=O)N(C)CC(=O)N[C@@H](CCc4cc(F)c(C(F)(F)F)c(F)c4)C(=O)N2C1)N1CC/C=C\C[C@@H](C1=O)N(C)C(=O)CN(C)C(=O)[C@H]([C@@H](C)CC)NC3=O [PP1827, (1S,7S,11R,13S,19S,22S,26S,29S,35S,37Z,47E)-19-cyclopentyl-7-[2-[3,5-difluoro-4-(trifluoromethyl)phenyl]ethyl]-11-ethoxy-N-ethyl-N,3,18,21,25,31,34-heptamethyl-29-[(1S)-1-methylpropyl]-2,5,8,14,17,20,24,27,30,33,55-undecaoxo-spiro[3,6,9,15,18,21,25,28,31,34,41-undecazapentacyclo[24.15.11.2^43,46.1^35,41.0^9,13]pentapentaconta-37,43(54),44,46(53),47-pentaene-16,1′-cyclobutane]-22-carboxamide] | A (a compound having 10 or more and less than 20 is denoted as A) | A (a compound having 10 or more and less than 20 is denoted as A) | 10.54 | – | 8.62 | – | – |
| CCO[C@@H]1C[C@H]2C(=O)NC3(CC(C)(C)C3)C(=O)N(C)[C@@H](C3CCCC3)C(=O)N(C)[C@H](C(=O)N(C)CC)CC(=O)N(C)[C@H]3CCCC/C=C/c4ccc(cc4)C[C@@H](C(=O)N(C)CC(=O)N[C@@H](CCc4cc(F)c(C(F)(F)F)c(F)c4)C(=O)N2C1)N1CC/C=C\C[C@@H](C1=O)N(C)C(=O)CN(C)C(=O)[C@H]([C@@H](C)CC)NC3=O [PP1829] | A (a compound having 10 or more and less than 20 is denoted as A) | B (a compound having 3 or more and less than 10 is denoted as B) | 10.48 | – | 8.64 | – | – |
| CCCN1C(=O)CN(CC)C(=O)CN(C)C(=O)[C@H]([C@@H](C)CC)NC(=O)[C@H](CC(C)C)N(C)C(=O)C[C@@H](C(=O)N2CCOCC2)N(C)C(=O)[C@H](C2CCCC2)N(C)C(=O)C2(CCC2)NC(=O)[C@@H]2CCCN2C(=O)[C@H](CCc2ccc(C(F)(F)F)c(Cl)c2)NC(=O)CN(C)C(=O)[C@@H]1Cc1ccc(C(F)(F)F)cc1 [PP1948] ([NMeL]I[Sar][NEtG][NPrPhe(4-CF3)][Sar][hPhe(3-Cl-4-CF3)]P[Ac4c][NMeGly(cPent)][NMeD]-Morpholide; lactam N-11) | C (A compound having a KD ratio of 0.1 or more and less than 3 is denoted as C) | C (A compound having a KD ratio of 0.1 or more and less than 3 is denoted as C) | 9.39 | 7.79 | – | – | – |
| CCC[C@H]1C(=O)N[C@@H]([C@@H](C)CC)C(=O)N(C)CC(=O)N(CCC)CC(=O)N(CCC)[C@@H](Cc2ccc(C(F)(F)F)cc2)C(=O)N(C)CC(=O)N[C@@H](CCc2ccc(C(F)(F)F)c(Cl)c2)C(=O)N2CCC[C@H]2C(=O)NC2(CCC2)C(=O)N(C)[C@@H](C2CCCC2)C(=O)N(C)[C@H](C(=O)N2CCOCC2)CC(=O)N1C [PP1949] ([NMeNva]I[Sar][NPrGly][NPrPhe(4-CF3)][Sar][hPhe(3-Cl-4-CF3)]P[Ac4c][NMeGly(cPent)][NMeD]-Morpholide; lactam N-11) | C (A compound having a KD ratio of 0.1 or more and less than 3 is denoted as C) | C (A compound having a KD ratio of 0.1 or more and less than 3 is denoted as C) | 9.04 | 8.03 | – | – | – |
| C#CC[C@H]1C(=O)N[C@@H]([C@@H](C)CC)C(=O)N(C)CC(=O)N(C)[C@H]2C/C=C\CCN(C2=O)[C@@H](Cc2ccc(C(F)(F)F)cc2)C(=O)N(C)CC(=O)N[C@@H](CCc2cc(F)c(C(F)(F)F)c(F)c2)C(=O)N2C[C@@H](C)C[C@H]2C(=O)NC2(CCC2)C(=O)N(C)[C@@H](C2CCCC2)C(=O)N(C)[C@H](C(=O)N(C)CCC)CC(=O)N1C [PP2077] | – | – | 9.92 | – | 7.96 | A (a compound having 10 or more and less than 20 is denoted as A) | A (a compound having 10 or more and less than 20 is denoted as A) |
| CC[C@H](C)[C@@H]1NC(=O)[C@H](C(C)C)N(C)C(=O)C[C@@H](C(=O)N(C)CC)N(C)C(=O)[C@H](C2CCCC2)N(C)C(=O)C2(CCC2)NC(=O)[C@@H]2C[C@H](C)CN2C(=O)[C@H](CCc2cc(F)c(C(F)(F)F)c(F)c2)NC(=O)CN(C)C(=O)[C@H](Cc2ccc(C(F)(F)F)cc2)N2CC/C=C\C[C@@H](C2=O)N(C)C(=O)CN(C)C1=O [PP2078] | – | – | 9.77 | – | 7.99 | AA (a compound having 20 or more is denoted as AA) | A (a compound having 10 or more and less than 20 is denoted as A) |
| C#CCN1CC(=O)N(C)[C@H]2C/C=C\CCN(C2=O)[C@@H](Cc2ccc(C(F)(F)F)cc2)C(=O)N(C)CC(=O)N[C@@H](CCc2ccc(C(F)(F)F)c(OC)c2)C(=O)N2C[C@H](OCC)C[C@H]2C(=O)NC2(CC(C)(C)C2)C(=O)N(C)[C@@H](C2CCCC2)C(=O)N(C)[C@H](C(=O)N(C)C)CC(=O)N(C)[C@@H](CC)C(=O)N[C@@H]([C@@H](C)CC)C1=O [PP2091] | – | – | 9.74 | – | 8.34 | A (a compound having 10 or more and less than 20 is denoted as A) | B (a compound having 3 or more and less than 10 is denoted as B) |
| CCC[C@@H]1C[C@H]2C(=O)NC3(CC(C)(C)C3)C(=O)N(C)[C@@H](C3CCCC3)C(=O)N(C)[C@H](C(=O)N(C)C)CC(=O)N(C)[C@@H](C)C(=O)N[C@@H]([C@@H](C)CC)C(=O)N(C)CC(=O)N(C)[C@H]3C/C=C\CCN(C3=O)[C@@H](Cc3ccc(C(F)(F)F)cc3)C(=O)N(C)CC(=O)N[C@@H](CCc3cc(F)c(C(F)(F)F)c(F)c3)C(=O)N2C1 [PP2273] | – | – | 9.72 | – | 8.80 | AA (a compound having 20 or more is denoted as AA) | A (a compound having 10 or more and less than 20 is denoted as A) |
